Experimental data published in patent US20080293099A1, “Lignan Glycosidase and Utilization of the Same” (priority 2004, published 2008).

Experiments:
[1] = test system: SrSiGT8 recombinant protein; assay: lignan glycosidation activity assay with purified His-SrSiGT8 recombinant protein (HPLC analysis); type: biochemical, Sesamum radiatum; details: Ni column purified, dialyzed His-SrSiGT8, UDP-glucose, 30° C. for an hour
Protocol: About 1.4 kb DNA fragment containing the full-length SrSiGT8 was excised from pSPB2656 with BamHI/KpnI and then ligated to the BamHI/KpnI site of pQE30 vector (QIAGEN), which was an expression vector for Escherichia coli, to obtain SrSiGT8/pQE30 (pSPB2657). This pSPB2657 expresses recombinant protein (His-SrSiGT8) with His tag consisting of 6 histidine residues fused to SrSiGT8 at the N terminus.
Escherichia coli transformed with pSPB2657 was incubated as in EXAMPLE 7 to express a recombinant protein. The following experiment was all carried out on ice or at 4° C., unless otherwise indicated.
After the cells were dissolved in 5 ml of lysis buffer (20 mM sodium phosphate buffer, 30 mM imidazole, 500 mM NaCl, 5 mM β-mercaptoethanol and 100 μM APSMF) per 1 g, the cells were lysed by ultrasonication, followed by centrifugation at 4000 rpm for 10 minutes. The supernatant obtained was recovered as the crude enzyme solution.
Next, the His-SrSiGT8 recombinant protein was purified through a Ni column. Chelating Sepharose FF resin (Amersham Bioscience) was packed in the column and 0.1M NiSO4 in a volume equal to the resin was added to the resin. Subsequently, the column was washed with water in a volume twice the volume of the resin and then with 20% ethanol in a volume 3 times the volume of the resin.
Then, the column was equilibrated with a lysis buffer in a volume 5 times the volume of the resin and a sample obtained by diluting 5 mL of the crude enzyme solution described above with the lysis buffer to 10-fold was loaded on the column. After the sample naturally dropped by the gravity, the sample was washed 3 times with the lysis buffer in a volume 5 times the volume of the resin and then eluted using 5 ml of an elution buffer (20 mM sodium phosphate buffer, 500 mM imidazole, 500 mM NaCl, 5 mM β-mercaptoethanol and 100 μM APSMF) […]
To 300 μl of the dialyzed sample, 20 μl of the substrate solution (1 mg/ml) and 3 μl of 20 mM UDP-glucose were added to react at 30° C. for an hour. The reaction product was analyzed in a manner similar to EXAMPLE 8.

[2] = test system: SaSiGT8 recombinant protein; assay: lignan glycosidation activity assay with SaSiGT8 recombinant protein (SaLGT1) (HPLC analysis); type: biochemical, S. alatum; details: recombinant protein expressed in Escherichia coli as in EXAMPLE 11
From the text: The fragment containing ORF of SaSiGT8 was excised from pSPB2697 with BamHI and KpnI and inserted into the BamHI and KpnI sites of Escherichia coli expression vector pQE30 to give the expression vector pSPB2698. The recombinant SaSiGT8 protein (SaLGT1) was expressed as in EXAMPLE 11 to confirm that the protein had the lignan glycosidation activity. It was also confirmed by SDS-PAGE that the recombinant SaSiGT8 protein (ca. 60 kDa) was present in the lysis supernatant of transgenic Escherichia coli expressing the SaSiGT8 gene (FIG. 9).

[3] = test system: SiGT8 recombinant protein; assay: lignan glycosidation activity assay with SiGT8 recombinant protein (HPLC analysis of the product); type: biochemical, Sesamum indicum; details: crude enzyme solution expressed in Escherichia coli, UDP-glucose, 30° C. for an hour, absorption at 287 nm
Protocol: (§1) Escherichia coli JM109 (TOYOBO) was transformed with Escherichia coli expression vectors pSPB2637, pSPB2642, pSPB2645, pSPB2639 and pSPB2640 prepared in EXAMPLE 6, and preincubated at 37° C. overnight in LB medium supplemented with ampicillin in final concentration of 20 μg/ml. A part of the preincubation culture was added to M9 medium (10 ml) containing 50 μg/ml of ampicillin and 0.5% Casamino acid, and shake cultured to reach A600=0.6-1.0. The composition of M9 medium is as follows: 1×M9 salt, 1 mM MgSO4, 0.2% glucose and 0.001% thiamine hydrochloride. The composition of 10×M9 medium is as follows: a 500 ml aqueous solution containing 30 g of Na2HPO4, 15 g of KH2PO4, 2.5 g of NaCl and 5 g of NH4Cl. Next, IPTG (isopropyl-β-D-thiogalactopyranoside) in a final concentration of 0.5 mM was added to the culture. After further shake culture at 30° C. overnight, centrifugation was performed at 3000 rpm at 4° C. for 10 minutes to collect the cells. […]
(§2) Pinoresinol, piperitol or sesaminol was dissolved in a small quantity of DMSO and further dissolved in 70% ethanol to prepare a substrate solution (1 mg/ml). […]
(§3) The enzyme reaction was terminated by adding 100% acetonitrile (250 μl) containing 0.1% TFA (trifluoroacetic acid) to the reaction tube. […] The resulting supernatant was washed through a filter (pore size of […], 4 mm Millex-LH, Millipore) and then analyzed using high performance liquid chromatography (hereinafter HPLC). […]
Liquid chromatography (Lc-2010c (Shimadzu Corporation)) was performed using a C-30 column (Nomura Chemical, C30-UG-5, 4.6 mm×150 mm). […] Absorption was monitored at 287 nm to detect the compound contained in a sample. The spectra between 190 nm and 400 nm for each peak of the compound were measured using SPD-10AV (Shimadzu Corporation) to detect a substance having two absorption maxima (230 nm and 280 nm) characteristic of lignans. Under the conditions, authentic pinoresinol is detected at about 8.4 minutes, authentic piperitol at about 12.8 minutes and authentic sesaminol at about 13.8 minutes (FIGS. 2 and 3).

[4] = test system: SiGT10 recombinant protein; assay: lignan glycosidation activity assay with SiGT10 recombinant protein (HPLC analysis of the product); type: biochemical, Sesamum indicum; details: crude enzyme solution expressed in Escherichia coli, UDP-glucose, 30° C. for an hour, absorption at 287 nm
Protocol: as §1, with “NH4Cl.” for “NH4Cl. Next, IPTG (isopropyl-β-D-thiogalactopyranoside) in a final concentration of 0.5 mM was added to the culture. After further shake culture at 30° C. overnight, centrifugation was performed at 3000 rpm at 4° C. for 10 minutes to collect the cells.”
as §2, §3
Liquid chromatography (Lc-2010c (Shimadzu Corporation)) was performed using a C-30 column (Nomura Chemical, C30-UG-5, 4.6 mm×150 mm). […] Absorption was monitored at 287 nm to detect the compound contained in a sample. […]

Row | Compound | glycosidation of the lignan substrate by SrSiGT8 (new product peak with lignan spectrum in HPLC) [1] | glycosidation of the lignan substrate by SaSiGT8 (monoglucoside formed, HPLC) [2] | glycosidation of the lignan substrate by SiGT8 (new product peak with lignan spectrum in HPLC) [3] | glycosidation of the lignan substrate by SiGT10 (new product peak with lignan spectrum in HPLC) [4]
1 | Oc1cc2c(cc1[C@H]1OC[C@H]3[C@@H]1CO[C@@H]3c1ccc3c(c1)OCO3)OCO2 [sesaminol] | peak F having a new spectrum for lignan showing the retention time of about 8.2 minutes was detected | produced the respective monoglucosides | peak B having the spectrum of lignan (retention time of about 8.2 minutes) was newly obtained | peak C having the spectrum of lignan (retention time of about 8.2 minutes) was newly obtained
2 | COc1cc([C@@H]2OC[C@@H]3[C@H]2CO[C@H]3c2ccc3c(c2)OCO3)ccc1O [piperitol] | peak E having a new spectrum for lignan showing the retention time of about 7.4 minutes was detected | produced the respective monoglucosides | peak D having the spectrum of lignan (retention time of about 7.4 minutes) was newly obtained | –
3 | pinoresinol | any peak with a spectrum for any new lignan was detected | produced the respective monoglucosides | peak A having the spectrum of lignan (retention time of about 4.0 minutes) was newly obtained | any new product was not observed
